# According to publication PMC4627311, “Marine alkaloid Monanchocidin a overcomes drug resistance by induction of autophagy and lysosomal membrane permeabilization” (Oncotarget, 2015):
# pIC50: −log10 of the molar value. Where two headings read alike, the source gives them in different places.
# Columns and labels:
# NCCIT-R cells [1] = test: Drug combination MTT assay, Chou-Talalay method (CI)
# Protocol: (§6) F, Effect of MonA in combination with cisplatin on NCCIT-R cells, examined by the MTT assay. Cells were co-treated with different concentrations of the single substances or their combination for 48 h at a constant molar ratio. The combinational index (CI) values were calculated with CompuSyn software. The ratio of the substances is C(MonA) : C(cisplatin) = 1.2 : 10.
# (§7) Co-treatment of MonA and the indicated inhibitors for 48 h was performed. The combinational index (CI) values were calculated with the CompuSyn software for the Fa (fraction affected) = 0.5.
# (§8) Determination of synergistic or antagonistic drug effects in combination assays was performed using the Chou-Talalay method [20]. Data were generated by MTT assay. The combinational index (CI) was calculated for the constant drugs ratio with the CompuSyn v.1.0. software (ComboSyn, Inc., Paramus, NJ, USA). Synergism is defined as a CI < 1, whereas antagonism is defined by a CI > 1. The MTT assay was used to examine the combination of MonA at the IC50 with defined inhibitors of autophagy or LMP, or with the IC50 of cisplatin. […] All experiments were performed in triplicates and were repeated at least three times.
# MonA : z-VAD-fmk 1.2 µM : 100 µM
# MonA : calpeptine 1.2 µM : 50 µM
# MonA : leupeptine 1.2 µM : 100 µM
# (§9) MonA : protease inhibitors cocktail 1.2 µM : 0.02 tablet/ml
# (cOmplete Mini EDTA-free)
# NCCIT = test: MTT cytotoxicity assay, NCCIT; format: cell-based, human; conditions: cisplatin-sensitive GCT, 72 h
# Excerpt: (§1) The human prostate cancer cell lines PC3 (docetaxel resistant, androgen-independent), DU145 (docetaxel sensitive, androgen-independent), LNCaP (docetaxel sensitive, androgen-dependent), human bladder cancer cell lines RT112, RT4, 486p, T24, human embryonic kidney cell line HEK 293T, human embilical vascular endothelium cell line HUVEC, as well as human fibroblast cell lines MRC-5 and MRC-9 were obtained from ATCC (Manassas, VA, USA). The human germ cell tumor cancer cell line NCCIT was obtained from DSMZ (Braunschweig, Germany). TCam-2 and 2102EP cells were kindly provided by Prof. L. Looijenga (Rotterdam, The Netherlands). The cisplatin-resistant sublines NCCIT-R and 2102EP-R have been generated as reported before. Cells were cultured according to the manufacturers instructions (culture conditions are described in the supplementary). Cells were continuously kept in culture for a maximum of 3 months, and were routinely inspected microscopically for stable phenotype and regularly checked for contamination with mycoplasma. Cell line authentication was performed by DSMZ (Braunschweig, Germany) using highly polymorphic short tandem repeat loci.
# (§2) The in vitro cytotoxicity of individual substances and drug combinations was evaluated using the MTT (3-(4,5-dimethylthiazol-2-yl)-2,5-diphenyltetrazolium bromide) assay, which was performed as previously described.
# 2102EP = test: MTT cytotoxicity assay, 2102EP; format: cell-based, human; conditions: cisplatin-sensitive GCT, 72 h
# Excerpt: as §1, §2
# TCam-2 = test: MTT cytotoxicity assay, TCam-2; format: cell-based, human; conditions: TCam-2, cisplatin-sensitive GCT, 72 h
# Excerpt: as §1, §2
# NCCIT-R = test: MTT cytotoxicity assay, NCCIT-R; format: cell-based, human
# Excerpt: as §1, §2
# 2102EP-R = test: MTT cytotoxicity assay, 2102EP-R; format: cell-based, human; conditions: cisplatin-resistant GCT, 72 h
# Excerpt: as §1, §2
# RT112 = test: MTT cytotoxicity assay, RT112; format: cell-based, human; conditions: 72 h
# Excerpt: as §1, §2
# RT4 = test: MTT cytotoxicity assay, RT4; format: cell-based, human; conditions: 72 h
# Excerpt: as §1, §2
# 486p = test: MTT cytotoxicity assay, 486p; format: cell-based, human; conditions: bladder cancer, 72 h
# Excerpt: as §1, §2
# T24 = test: MTT cytotoxicity assay, T24; format: cell-based, human; conditions: 72 h
# Excerpt: as §1, §2
# NCCIT-R cells [2] = test: Western blotting / PAGE of protein extracts; format: cell-based, human; conditions: for Expression of LC3B-II (marker of autophagy): MonA 0.25 – 2 μM long-term or 20 – 50 μM short-term, reference drugs 48 h
# Protocol: (§3) Figure 3 Effect of MonA on activation of MAPK and protein degradation A, NCCIT-R cells were analyzed after treatment with MonA for 1 h by Western blotting. Cells treated with 50 μM of anisomycin for 1 h (Aniso) were used as a positive control for MAPK activation. […] C, Analysis of NCCIT-R cells treated with 1 μM of MonA for 1 h. […] Two samples of the spot were randomly picked from the area between ~5 kDa and ~1 kDa, followed by trypsination and identification of peptides by tandem mass spectrometry. D, Analysis of NCCIT-R cells treated with 20 μM of MonA for 1-3 h. Cleavage of PARP and caspase-3 were investigated as hallmarks of apoptosis. Cells treated with 10 μM of cisplatin (CP) for 48 h were used for comparison of the effects of a classical cytotoxic agent. E, Analysis of non-malignant HEK 293T cells treated with 0.0625 – 1 μM of MonA for 48 h.
# Figure 5 Effect of cytotoxic compounds on NCCIT-R cells A, NCCIT-R cells were treated with docetaxel, anisomycin, or cisplatin for 48 h. The effect on markers of apoptosis (cleavage of PARP and caspase-3) and autophagy (LC3B-II) were analyzed using Western blotting. While all show induction of apoptosis, expression of LC3B-II is not increased after treatment with these substances. B, Microphotographs of NCCIT-R cells treated with cisplatin or MonA for 48 h show morphological changes induced by the substances. The pictures were made at x100 magnification. Each bar represents 50 μm.
# (§4) Preparation of protein extracts and Western blotting were performed as described previously with slight modifications. In brief, 1 × 10^6 cells/well were seeded in Petri dishes (ø 6 cm, 5 mL/dish). Cells were harvested, proteins were extracted, subjected to electrophoresis in 10-15% SDS-polyacrylamide gels at 120 V, and transferred from gel to a 0.2 μm pore PVDF membrane. The membrane was blocked and incubated with the primary antibody according to the manufacturer's protocol (for antibodies used, see the supplementary). After washing, the membranes were incubated with the corresponding secondary antibody for 1 h at RT. Signals were detected using the ECL chemiluminescence system (Thermo Scientific, Rockford, IL, USA) according to the manufacturer's protocol.
# SDS-polyacrylamide gels were prepared as described above. Dye-free loading buffer was used for the protein samples preparation. Gels were fixed and stained with colloidal Coomassie Blue overnight, destained, and digitalized as previously described.
# MRC-5 = test: MTT cytotoxicity assay, MRC-5; format: cell-based; conditions: Homo sapiens, MRC5, MRC-5, non-malignant, 72 h
# Excerpt: as §1, §2
# MRC-9 = test: MTT cytotoxicity assay, MRC-9; format: cell-based; conditions: Homo sapiens, MRC9, MRC-9, non-malignant, 72 h
# Excerpt: as §1, §2
# HEK 293T = test: MTT cytotoxicity assay, HEK 293T; format: cell-based; conditions: Homo sapiens, non-malignant, 72 h
# Excerpt: as §1, §2
# HUVEC = test: MTT cytotoxicity assay, HUVEC; format: cell-based; conditions: Homo sapiens, non-malignant, 72 h
# Excerpt: as §1, §2
# PC3 = test: MTT cytotoxicity assay, PC3; format: cell-based; conditions: Homo sapiens, PC-3, PC3, prostate cancer, 72 h
# Excerpt: as §1, §2
# DU145 = test: MTT cytotoxicity assay, DU145; format: cell-based; conditions: Homo sapiens, DU-145, DU145, prostate cancer, 72 h
# Excerpt: as §1, §2
# LNCaP = test: MTT cytotoxicity assay, LNCaP; format: cell-based; conditions: Homo sapiens, prostate cancer, 72 h
# Excerpt: as §1, §2
# HEK 293T cells = test: Western blotting / PAGE, protein degradation in non-malignant cells; format: cell-based, human; conditions: non-malignant HEK 293T, 0.0625 – 1 μM, 48 h
# Protocol: as §3
# Preparation of protein extracts and Western blotting were performed as described previously with slight modifications. In brief, 1 × 10^6 cells/well were seeded in Petri dishes (ø 6 cm, 5 mL/dish). Cells were harvested, proteins were extracted, subjected to electrophoresis in 10-15% SDS-polyacrylamide gels at 120 V, and transferred from gel to a 0.2 μm pore PVDF membrane. […] Signals were detected using the ECL chemiluminescence system (Thermo Scientific, Rockford, IL, USA) according to the manufacturer's protocol. […]
# prostate cancer cells = test: Western blotting of LC3B-II in prostate cancer cells; format: cell-based, human; conditions: 48 h
# Protocol: as §4
# NCCIT-R cells [3] = test: Acridine orange staining of lysosomes (LMP); format: cell-based, human
# Protocol: (§5) Intact lysosomes were observed as organelles emitting red fluorescence (indicated by arrows). Red fluorescence was quantified using Image J software and is graphically depicted by column bars. B, Cells were treated with MonA for 48 h, and immobilized on glass plates. Samples were permeabilized, blocked, labeled with a primary anti-cathepsin B antibody, followed by a secondary Alexa Fluor 488-conjugated antibody labeling, and analyzed using fluorescent microscopy. […] The microphotographs (A, B) were made at x400 and x100 magnifications. Each bar represents 50 μm.
# NCCIT-R cells were pre-incubated overnight in 8-chamber glass slides (5 × 10^4 cells/chamber). The medium was changed with medium containing different concentrations of the substances examined, and cells were treated for 60 min. Then cells were washed twice with PBS solution, stained with 0.5 μg/mL of acridine orange/PBS for 15 min at 37°C, covered with DAPI-based ProLong® Gold reagent (Life Technologies, Eugene, OR, USA), and immediately analyzed with AxioScope.A1 (Carl Zeiss) microscope and with the AxioVision40 V4.8 software (Carl Zeiss Imaging Solutions, Göttingen, Germany). Red fluorescence measurements and quantification were performed with Image J software (NIH, Bethesda, USA).
# NCCIT-R cells [4] = test: Detection of cathepsin B release; format: cell-based, human; conditions: 48 h
# Protocol: as §5
# To assess release of cathepsin B into the extracellular space, NCCIT-R cells were pre-incubated overnight in 6-well plates (2 × 10^5 cells/well), and were then treated with MonA for 48 h. After trypsination, cells were immobilized on glass slides using the cytospin method and dried overnight. Cells were fixed with 2% (w/v) PFA/PBS, washed with PBS and permeabilized with 0.1% (v/v) Triton X-100 solution in 2% (v/v) normal goat serum/PBS for 30 min. […] Then, samples were washed with PBS, covered with DAPI-based ProLong® Gold reagent (Life Technologies) and directly analyzed with AxioScope.A1 (Carl Zeiss) microscope and with the AxioVision40 V4.8 software (Carl Zeiss Imaging Solutions).
# THP-1 = test system: THP-1; set-up: method as in PMID 20804151; conditions: cited from earlier work
# HL-60 = test system: HL-60; set-up: method as in PMID 20804151; conditions: cited from earlier work
# HeLa = test system: HeLa; set-up: method as in PMID 20804151; conditions: cited from earlier work
# NCCIT-R cells [5] = test system: NCCIT-R cells
# Protocol: as §6, §7, §8
# MonA : z-VAD-fmk 1.2 µM : 100 µM
# MonA : calpeptine 1.2 µM : 50 µM
# MonA : leupeptine 1.2 µM : 100 µM
# as §9
# (cOmplete Mini EDTA-free)
compound,measurement,setting,value
"Cn1cnc(N)c2ncnc1-2 [3-MA, 3-methyladenine, reference compound]",Effect of inhibitor on cytotoxicity of MonA (combinational index),"NCCIT-R cells [1]; 48 h, MTT, CI at Fa = 0.5, ratios in Table S3",most pronounced antagonistic effect
"N.N.[Cl][Pt][Cl] [Cisplatin, cis-diamminedichloroplatinum (II), reference compound]",pIC50,NCCIT,5.81
same,pIC50,2102EP,6.19
same,pIC50,TCam-2,5.61
same,pIC50,"NCCIT-R; cisplatin-resistant GCT, 72 h, MTT",5.05
same,pIC50,2102EP-R,5.31
same,pIC50,"RT112; RT112, bladder cancer",5.05
same,pIC50,"RT4; RT4, bladder cancer",4.93
same,pIC50,486p,4.68
same,pIC50,"T24; T24, bladder cancer",5.04
same,Markers of apoptosis (cleavage of PARP and caspase-3),NCCIT-R cells [2]; Western blotting,increase of markers of apoptosis
same,Expression of LC3B-II (marker of autophagy),NCCIT-R cells [2]; Western blotting,None of the drugs revealed an up-regulation of LC3B-II
"CC/C=C/[C@@H]1CC[C@]2(C[C@H]3CC[C@H]4[C@@H](C(=O)OC(CC)CCCCCCCCCCCCC[C@@H]5O[C@](O)(CCN)[C@H](O)N(CCCN)C5=O)[C@@]5(CCC[C@H](C)O5)NC(=[N+]34)N2)O1 (stereo partly drawn) [MonA, Monanchocidin A]",pIC50,MRC-5,6.12
same,pIC50,MRC-9,6.15
same,pIC50,HEK 293T,6.17
same,pIC50,HUVEC,6.08
same,pIC50,NCCIT; Homo sapiens,6.68
same,pIC50,2102EP; Homo sapiens,6.47
same,pIC50,TCam-2; Homo sapiens,6.36
same,pIC50,"NCCIT-R; Homo sapiens, 48 h of treatment",6.00 to 6.30
same,pIC50,"NCCIT-R; Homo sapiens, cisplatin-resistant GCT, 72 h, MTT",6.60
same,pIC50,2102EP-R; Homo sapiens,6.51
same,pIC50,PC3,6.38
same,pIC50,DU145,6.32
same,pIC50,LNCaP,6.58
same,pIC50,"RT112; Homo sapiens, RT-112, RT112, bladder cancer",6.58
same,pIC50,"RT4; Homo sapiens, RT-4, RT4, bladder cancer",6.24
same,pIC50,486p; Homo sapiens,6.56
same,pIC50,"T24; Homo sapiens, T-24, T24, bladder cancer",6.38
same,"Activation of MAPK (p38, ERK, JNK)","NCCIT-R cells [2]; 50 μM, 1 h, Western blotting","Activation of p38 and ERK, but not JNK"
same,Expression of LC3B-II (marker of autophagy),NCCIT-R cells [2]; Western blotting,up-regulation of LC3B-II
same,Protein degradation,NCCIT-R cells [2]; short term 30 μM - 50 μM or long-term 0.5 μM - 2 μM,Degradation of different proteins was observed
same,Protein degradation,HEK 293T cells,did not reveal any signs of protein degradation
same,Expression of LC3B-II (marker of autophagy),prostate cancer cells,up-regulation of LC3B-II
same,Lysosomal membrane permeabilization (acridine orange fluorescence),NCCIT-R cells [3],disappearance of red fluorescence coupled with increased green fluorescence
same,Concentration at which release of cathepsin B into the extracellular space occurred,NCCIT-R cells [4],≥ 2 µM
same,Cytotoxic activity,THP-1,micro- and nanomolar concentrations
same,Cytotoxic activity,HL-60,micro- and nanomolar concentrations
same,Cytotoxic activity,HeLa,micro- and nanomolar concentrations
same,Effect of MonA in combination with cisplatin (combinational index),"NCCIT-R cells [1]; 48 h co-treatment, C(MonA) : C(cisplatin) = 1.2 : 10",strong synergistic effects
"COc1ccc(C[C@H]2NC[C@H](O)[C@H]2OC(C)=O)cc1 [anisomycin, Anisomycin]",Markers of apoptosis (cleavage of PARP and caspase-3),NCCIT-R cells [2]; Western blotting,increase of markers of apoptosis
same,Expression of LC3B-II (marker of autophagy),NCCIT-R cells [2]; Western blotting,None of the drugs revealed an up-regulation of LC3B-II
CC(=O)O[C@@]12CO[C@@H]1C[C@H](O)[C@@]1(C)C(=O)[C@H](O)C3=C(C)[C@@H](OC(=O)[C@H](O)[C@@H](NC(=O)OC(C)(C)C)c4ccccc4)C[C@@](O)([C@@H](OC(=O)c4ccccc4)[C@H]21)C3(C)C [docetaxel],Markers of apoptosis (cleavage of PARP and caspase-3),NCCIT-R cells [2]; Western blotting,increase of markers of apoptosis
same,Expression of LC3B-II (marker of autophagy),NCCIT-R cells [2]; Western blotting,None of the drugs revealed an up-regulation of LC3B-II
z-VAD(OMe)-fmk [z-VAD-fmk],Effect of inhibitor on cytotoxicity of MonA (combinational index),NCCIT-R cells [5],moderate antagonistic effect
